# Earlier results as cited in paper PMC7821949 (Biomolecules, 2020).
# Tested on: α-Bgt
substance,measurement,value
HAP: Combinatorial high-affinity peptide HAP. (WRYYESSLLPYPD),affinity for α-Bgt,2 to 4 nM
